The results in this text go back to patent publication US8268859B2, “Glucocorticoid mimetics, methods of making them, pharmaceutical compositions and uses thereof” (Boehringer Ingelheim International GmbH, priority 2008, dated 2012).

Molecules are shown by their SMILES. Converted amounts (≈) assume the structure as drawn. Where two headings read alike, the source gives them in different places.

In general, solubility refers to the concentration that dissolves in the medium under given conditions. What is called IC50 is the concentration that gives 50% inhibition. As usually defined, the half-life is how long it takes for the measured level to halve.

Data set [1] in a line: High throughput solubility. The data set is classed as physicochemical. Conditions: aqueous buffer (pION system solution), pH 7, aqueous buffer, kinetic from dmso stock.
For data set [2], the target named is T1, Potassium Channel HERG (Homo sapiens, UniProt Q12809).
T1 construct: expressed in transfected cells; host or cells: HEK-293 cells
Briefly: hERG assays (either hERG binding assay or hERG patch clamp assay). The data set is classed as cell-based. Conditions: Table 3, not specified per compound. A general note: Block of hERG is tested as a sign of cardiac risk.

Data set [3] can be described thus: Human microsomal stability. The data set is classed as in vitro ADME. Particulars: pH 7.4; human liver microsomes; read-out: human liver microsome half life.
For data set [4], the target named is human recombinant CYP3A4 (Homo sapiens, UniProt P08684). Briefly: Cytochrome P450 inhibition assay (substrate 7-benzyloxy-4-(trifluoromethyl)coumarin).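 Also: compounds preincubated at least 10 min at 37 °C before adding enzyme plus substrate, reaction run 30 min at 37 °C, ketoconazole standard curve on every plate.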 The data set is classed as in vitro ADME.
For data set [5], the target named is T2, human glucocorticoid receptor (GR) complex (Homo sapiens, UniProt P04150).
T2 construct: made in house; host or cells: insect expression system (baculovirus lysate)
T2 sequence (P04150 1-777): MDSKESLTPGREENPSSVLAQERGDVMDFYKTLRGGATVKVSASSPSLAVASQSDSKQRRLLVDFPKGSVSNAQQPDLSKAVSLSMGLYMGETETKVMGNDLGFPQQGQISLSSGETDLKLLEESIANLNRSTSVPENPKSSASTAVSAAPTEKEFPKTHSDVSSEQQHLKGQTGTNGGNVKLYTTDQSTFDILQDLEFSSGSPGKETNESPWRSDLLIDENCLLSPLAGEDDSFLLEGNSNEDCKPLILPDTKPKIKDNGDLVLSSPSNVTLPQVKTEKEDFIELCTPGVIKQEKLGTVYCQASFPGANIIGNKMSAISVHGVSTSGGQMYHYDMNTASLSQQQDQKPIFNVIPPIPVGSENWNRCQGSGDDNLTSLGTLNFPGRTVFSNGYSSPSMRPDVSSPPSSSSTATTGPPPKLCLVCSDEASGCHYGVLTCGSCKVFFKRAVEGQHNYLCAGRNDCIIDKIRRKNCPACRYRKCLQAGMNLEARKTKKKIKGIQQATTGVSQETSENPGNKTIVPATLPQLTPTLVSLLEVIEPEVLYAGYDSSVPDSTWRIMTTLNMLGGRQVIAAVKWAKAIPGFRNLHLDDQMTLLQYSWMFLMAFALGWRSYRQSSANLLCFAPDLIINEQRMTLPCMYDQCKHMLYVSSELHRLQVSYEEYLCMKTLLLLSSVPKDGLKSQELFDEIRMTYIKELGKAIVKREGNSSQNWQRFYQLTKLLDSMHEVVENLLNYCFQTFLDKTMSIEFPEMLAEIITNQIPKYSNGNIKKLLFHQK
Briefly: Glucocorticoid receptor fluorescence polarization competitive binding assay.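 Also: GR complex expressed in an insect system, wells lacking compound give full signal, excess unlabeled dexamethasone defines the blank, IC50 from logistic curve fit of polarization.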 Particulars: Table 1; competition with TAMRA-labeled dexamethasone; read-out: GR IC50. For orientation: In fluorescence polarisation assays a small probe gives low polarisation when free and higher when bound to something large.

T1 sequence (Q12809 whole entry): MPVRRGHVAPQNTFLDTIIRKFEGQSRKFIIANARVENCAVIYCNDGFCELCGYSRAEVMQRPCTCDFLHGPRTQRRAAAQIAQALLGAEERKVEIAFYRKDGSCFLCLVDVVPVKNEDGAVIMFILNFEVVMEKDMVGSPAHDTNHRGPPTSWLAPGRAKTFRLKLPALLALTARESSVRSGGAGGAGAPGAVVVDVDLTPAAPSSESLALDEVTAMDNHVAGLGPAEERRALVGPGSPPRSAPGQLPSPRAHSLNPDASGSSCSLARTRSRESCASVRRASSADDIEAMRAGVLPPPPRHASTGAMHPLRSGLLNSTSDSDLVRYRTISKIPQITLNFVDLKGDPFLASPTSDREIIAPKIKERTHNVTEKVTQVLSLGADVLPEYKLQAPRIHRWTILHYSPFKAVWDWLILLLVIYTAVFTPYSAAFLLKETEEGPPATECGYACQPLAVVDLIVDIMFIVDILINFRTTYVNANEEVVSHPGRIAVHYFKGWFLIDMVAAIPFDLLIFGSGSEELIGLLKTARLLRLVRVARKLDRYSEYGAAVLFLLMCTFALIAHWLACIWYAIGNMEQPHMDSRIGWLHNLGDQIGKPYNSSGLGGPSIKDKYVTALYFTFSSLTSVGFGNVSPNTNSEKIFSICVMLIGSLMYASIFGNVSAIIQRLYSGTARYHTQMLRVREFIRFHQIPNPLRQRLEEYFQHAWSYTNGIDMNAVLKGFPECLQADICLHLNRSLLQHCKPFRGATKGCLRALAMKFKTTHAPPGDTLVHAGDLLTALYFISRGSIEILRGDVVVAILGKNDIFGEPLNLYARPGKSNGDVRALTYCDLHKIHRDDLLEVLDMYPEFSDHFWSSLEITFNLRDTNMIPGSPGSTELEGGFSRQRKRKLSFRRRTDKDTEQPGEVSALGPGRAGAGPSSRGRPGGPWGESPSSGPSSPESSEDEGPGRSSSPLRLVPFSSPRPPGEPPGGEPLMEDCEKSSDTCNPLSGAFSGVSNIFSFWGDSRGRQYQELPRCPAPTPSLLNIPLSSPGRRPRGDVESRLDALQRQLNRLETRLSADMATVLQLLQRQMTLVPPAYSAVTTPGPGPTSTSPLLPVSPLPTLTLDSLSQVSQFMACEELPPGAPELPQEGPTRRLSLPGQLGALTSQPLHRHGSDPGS
human recombinant CYP3A4, sequence (P08684 whole entry): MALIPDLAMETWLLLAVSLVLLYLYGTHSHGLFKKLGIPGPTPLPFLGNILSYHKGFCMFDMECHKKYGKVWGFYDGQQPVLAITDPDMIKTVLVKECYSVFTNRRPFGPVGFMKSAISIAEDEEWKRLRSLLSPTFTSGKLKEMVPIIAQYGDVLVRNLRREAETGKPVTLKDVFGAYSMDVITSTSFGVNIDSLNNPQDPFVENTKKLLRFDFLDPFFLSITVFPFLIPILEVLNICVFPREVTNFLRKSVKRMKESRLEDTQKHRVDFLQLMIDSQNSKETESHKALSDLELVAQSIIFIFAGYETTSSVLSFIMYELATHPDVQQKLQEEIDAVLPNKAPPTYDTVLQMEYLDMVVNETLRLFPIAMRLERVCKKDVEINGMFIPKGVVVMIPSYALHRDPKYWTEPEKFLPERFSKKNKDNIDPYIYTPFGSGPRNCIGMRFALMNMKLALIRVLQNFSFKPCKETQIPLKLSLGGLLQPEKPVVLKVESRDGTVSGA

In the case of `CC(C)(CC(O)(Cc1cc2cc(S(C)(=O)=O)ncc2[nH]1)C(F)(F)F)c1ccc(F)cc1C(N)=O` (stereo not drawn), in data set [1], the solubility was over 100 µg/mL. The molecule also had an IC50 in data set [2] of over 30 µM. In data set [3], the half-life came out at 45 min.

The molecule `CC(C)(C[C@@](O)(Cc1cc2cc(S(C)(=O)=O)ncc2[nH]1)C(F)(F)F)c1ccc(Cl)cc1S(C)(=O)=O` [drawing 97] yielded a solubility in data set [1] of 40 µg/mL (≈ 72.3 µM). The IC50 in data set [2] was over 10 µM. In addition, in data set [3], the half-life stood at 17 min.

In data set [1], `CCS(=O)(=O)c1cc2cc(CC(O)(CC(C)(C)c3ccc(F)cc3S(C)(=O)=O)C(F)(F)F)[nH]c2cn1` (stereo not drawn) [drawing 99] showed a solubility of 52 µg/mL (≈ 94.4 µM). Moreover, in data set [2], the IC50 is over 30 µM. The half-life in data set [3] was 7 min.

`CCS(=O)(=O)c1cc2cc(CC(O)(CC(C)(C)c3ccc(Cl)cc3S(C)(=O)=O)C(F)(F)F)[nH]c2cn1` (stereo not drawn) [drawing 98] had a solubility in data set [1] of 18 µg/mL (≈ 31.7 µM). In data set [2], the IC50 is over 10 µM. For the same molecule, the half-life in data set [3] turned out to be 11 min.

The molecule `CC(C)(C[C@@](O)(Cc1cc2cc(S(C)(=O)=O)ncc2[nH]1)C(F)(F)F)c1ccc(F)cc1S(C)(=O)=O` [drawing 100] came in with a solubility in data set [1] of over 100 µg/mL. This molecule also gave an IC50 in data set [2] of over 30 µM. In data set [3], the half-life came out at 14 min.

For the molecule `CC(C)(C[C@@](O)(Cc1cc2cc(S(C)(=O)=O)ncc2[nH]1)C(F)(F)F)c1cc(Cl)cc2c1OCC2` [drawing 95], the IC50 in data set [4] (Table 3, read-out: CYP3A4 Inhibition IC50) was determined as 6.5 µM; in data set [2], 9.4 µM. Further, the half-life in data set [3] was under 3 min.

In data set [1], `CC(C)(C[C@@](O)(Cc1cc2cc(S(C)(=O)=O)ncc2[nH]1)C(F)(F)F)c1ccccc1C(N)=O` gave a solubility of 17 µg/mL (≈ 35.2 µM). For the same molecule, the IC50 in data set [2] was over 30 µM. For the same molecule, the half-life in data set [3] was determined as 44 min.

Turning to `CCS(=O)(=O)c1cc2cc(C[C@](O)(CC(C)(C)c3ccc(F)cc3C(N)=O)C(F)(F)F)[nH]c2cn1`, in data set [1], the solubility was over 100 µg/mL. Further, the half-life in data set [3] is over 300 min.

Consider `CC(C)(CC(O)(Cc1cc2cc(S(C)(=O)=O)ncc2[nH]1)C(F)(F)F)c1ccccc1S(C)(=O)=O` (stereo not drawn), for which the solubility in data set [1] turned out to be 59 µg/mL (≈ 114 µM). The half-life in data set [3] is under 3 min.

On to `CC(C)(CC(O)(Cc1cc2cc(S(C)(=O)=O)ncc2[nH]1)C(F)(F)F)c1cc(Br)ccc1O` (stereo not drawn) [4-Bromo-2-[4,4,4-trifluoro-3-hydroxy-3-(5-methanesulfonyl-1H-pyrrolo[2,3-c]pyridin-2-ylmethyl)-1,1-dimethylbutyl]phenol], for which the IC50 in data set [4] (Table 1, read-out: CYP3A4 IC50) is 5.6 µM; in data set [5] it was 7 nM.
